Assay results taken from patent publication US20230092890A1, “1, 3, 4-Oxadiazole derivative compounds as histone deacetylase 6 inhibitor, and the pharmaceutical composition comprising the same” (Chong Kun Dang Pharmaceutical Corp., priority 2019, published 2023).

Tests used:
HDAC6 human recombinant = target: T1, HDAC6 human recombinant (Homo sapiens, UniProt Q9UBN7); assay: HDAC enzyme activity inhibition (in vitro), HDAC6 assay; type: biochemical; conditions: samples at 0.1, 1, 10, 100 and 1000 nM; 37° C. 60 minutes; fluorescence Ex 390, Em 460; read-out: HDAC6 IC50
T1 construct: purchased Calbiochem 382180
T1 sequence (Q9UBN7 1-1215): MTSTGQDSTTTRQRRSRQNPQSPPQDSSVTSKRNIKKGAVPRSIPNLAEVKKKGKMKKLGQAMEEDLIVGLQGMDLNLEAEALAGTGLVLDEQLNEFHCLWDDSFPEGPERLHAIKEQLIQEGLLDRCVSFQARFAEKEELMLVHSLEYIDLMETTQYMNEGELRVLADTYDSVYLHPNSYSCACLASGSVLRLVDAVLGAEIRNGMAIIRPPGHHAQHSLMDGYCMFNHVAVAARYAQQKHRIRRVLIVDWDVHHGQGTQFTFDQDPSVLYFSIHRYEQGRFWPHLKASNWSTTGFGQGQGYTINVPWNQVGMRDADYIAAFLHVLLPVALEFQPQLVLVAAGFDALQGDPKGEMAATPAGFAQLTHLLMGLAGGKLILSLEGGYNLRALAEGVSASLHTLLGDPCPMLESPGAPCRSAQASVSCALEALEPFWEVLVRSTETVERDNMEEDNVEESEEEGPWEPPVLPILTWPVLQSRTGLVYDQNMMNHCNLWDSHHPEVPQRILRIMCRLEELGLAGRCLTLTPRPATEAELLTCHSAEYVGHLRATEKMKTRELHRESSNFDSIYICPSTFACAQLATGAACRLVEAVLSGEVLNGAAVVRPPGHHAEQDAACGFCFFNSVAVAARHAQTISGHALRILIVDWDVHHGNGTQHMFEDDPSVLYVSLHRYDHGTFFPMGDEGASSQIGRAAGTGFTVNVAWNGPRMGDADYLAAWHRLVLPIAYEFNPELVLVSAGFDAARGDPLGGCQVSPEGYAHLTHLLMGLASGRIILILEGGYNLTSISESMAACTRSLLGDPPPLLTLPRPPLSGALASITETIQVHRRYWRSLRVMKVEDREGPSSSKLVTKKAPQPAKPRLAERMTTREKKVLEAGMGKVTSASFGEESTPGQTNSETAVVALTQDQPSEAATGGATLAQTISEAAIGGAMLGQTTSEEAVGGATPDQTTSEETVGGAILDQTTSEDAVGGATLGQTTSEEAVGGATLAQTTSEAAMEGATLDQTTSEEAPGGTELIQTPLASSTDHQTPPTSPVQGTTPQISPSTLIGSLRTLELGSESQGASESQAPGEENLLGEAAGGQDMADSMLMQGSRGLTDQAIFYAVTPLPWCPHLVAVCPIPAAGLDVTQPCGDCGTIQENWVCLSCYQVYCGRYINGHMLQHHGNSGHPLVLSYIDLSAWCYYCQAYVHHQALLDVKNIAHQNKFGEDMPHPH
In short: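 Fluorescence (Ex 390, Em 460) read after a 37° C, 60 min enzyme reaction and a further 30 min developer step at 37° C. Uses recombinant human HDAC6; HDAC1 arm dosed at 100, 1000, 10000 nM.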

HDAC1 = target: T2, HDAC1 (Homo sapiens, UniProt Q13547); assay: HDAC enzyme activity inhibition (in vitro), HDAC1 Fluorimetric Drug Discovery Assay Kit; type: biochemical; conditions: samples at 100, 1000 and 10000 nM; 37° C. 60 minutes; fluorescence Ex 390, Em 460; read-out: HDAC1 IC50
T2 construct: purchased Enzolifesciences BML-AK511
T2 sequence (Q13547 whole entry): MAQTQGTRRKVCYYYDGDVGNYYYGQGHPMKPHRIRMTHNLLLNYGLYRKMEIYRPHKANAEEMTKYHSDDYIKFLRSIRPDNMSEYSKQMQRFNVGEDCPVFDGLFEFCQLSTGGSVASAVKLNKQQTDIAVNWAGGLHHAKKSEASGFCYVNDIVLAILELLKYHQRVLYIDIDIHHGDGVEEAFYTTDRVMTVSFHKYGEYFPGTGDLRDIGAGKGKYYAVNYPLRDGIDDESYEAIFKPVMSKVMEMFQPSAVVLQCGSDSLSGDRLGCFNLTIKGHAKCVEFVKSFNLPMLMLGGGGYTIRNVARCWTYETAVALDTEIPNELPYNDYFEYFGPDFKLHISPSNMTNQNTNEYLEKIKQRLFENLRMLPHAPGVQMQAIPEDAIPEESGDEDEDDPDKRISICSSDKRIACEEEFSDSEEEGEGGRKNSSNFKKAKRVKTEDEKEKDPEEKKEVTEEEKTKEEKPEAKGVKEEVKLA
In short: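 Fluorescence read-out (Ex 390/Em 460) after developer step, 30 min at 37° C, following a 60-min 37° C enzyme reaction. Test concentrations: HDAC1 kit, 100–10000 nM (three levels); recombinant human HDAC6, 0.1–1000 nM (five levels).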

SMILES	IC50 (HDAC6 human recombinant) [nM]	IC50 (HDAC1) [nM]
Cn1c(=O)n(Cc2ccc(-c3nnc(C(F)F)o3)cn2)c2cc(F)c(-c3ccoc3)cc21 [Compound 168, 1-((5-(5-(difluoromethyl)-1,3,4-oxadiazole-2-yl)pyridine-2-yl)methyl)-6-fluoro-5-(furan-3-yl)-3-methyl-1,3-dihydro-2H-benzo[d]imidazole-2-one]	40	> 10000
O=c1n(Cc2ccc(-c3nnc(C(F)F)o3)cn2)c2cc(F)ccc2n1CC1CCN(C2COC2)CC1 [Compound 301, 3-((5-(5-(difluoromethyl)-1,3,4-oxadiazole-2-yl)pyridine-2-yl)methyl)-5-fluoro-1-((1-(oxetan-3-yl)piperidine-4-yl)methyl)-1,3-dihydro-2H-benzo[d]imidazole-2-one]	29	> 10000
O=c1n(Cc2ccc(-c3nnc(C(F)F)o3)cn2)c2cc(F)c(N3CCN(Cc4cccnc4)CC3)cc2n1C1COC1 [Compound 324, 1-((5-(5-(difluoromethyl)-1,3,4-oxadiazole-2-yl)pyridine-2-yl)methyl)-6-fluoro-3-(oxetan-3-yl)-5-(4-(pyridine-3-ylmethyl)piperazine-1-yl)-1,3-dihydro-2H-benzo[d]imidazole-2-one]	42	> 10000
O=c1oc2cc(-c3ccc(N4CCN(CC(F)(F)F)CC4)nc3)c(F)cc2n1Cc1ccc(-c2nnc(C(F)F)o2)cn1 [Compound 351, 3-((5-(5-(difluoromethyl)-1,3,4-oxadiazole-2-yl)pyridine-2-yl)methyl)-5-fluoro-6-(6-(4-(2,2,2-trifluoroethyl)piperazine-1-yl)pyridine-3-yl)benzo[d]oxazole-2(3H)-one]	151	> 10000
O=c1n(Cc2ccc(-c3nnc(C(F)F)o3)cn2)c2ccccc2n1C1CC2(COC2)C1 [Compound 28, 1-((5-(5-(difluoromethyl)-1,3,4-oxadiazole-2-yl)pyridine-2-yl)methyl)-3-(2-oxaspiro[3.3]heptane-6-yl)-1,3-dihydro-2H-benzo[d]imidazole-2-one]	64	> 10000
CN1CCC(n2c(=O)n(Cc3ccc(-c4nnc(C(F)F)o4)cc3F)c3ccc(-c4ccncc4)cc32)CC1 [Compound 161, 1-(4-(5-(difluoromethyl)-1,3,4-oxadiazole-2-yl)-2-fluorobenzyl)-3-(1-methylpiperidine-4-yl)-5-(pyridine-4-yl)-1,3-dihydro-2H-benzo[d]imidazole-2-one]	40	> 10000
CN1CCC(n2c(=O)n(Cc3ccc(-c4nnc(C(F)F)o4)cc3)c3cc(F)ccc32)CC1 [Compound 79, 3-(4-(5-(difluoromethyl)-1,3,4-oxadiazole-2-yl)benzyl)-5-fluoro-1-(1-methylpiperidine-4-yl)-1,3-dihydro-2H-benzo[d]imidazole-2-one]	66	> 10000
CC(=O)N1CCC(c2ccc3c(c2)n(C2CCN(C)CC2)c(=O)n3Cc2ccc(-c3nnc(C(F)F)o3)cc2F)CC1 [Compound 157, 5-(1-acetylpiperidine-4-yl)-1-(4-(5-(difluoromethyl)-1,3,4-oxadiazole-2-yl)-2-fluorobenzyl)-3-(1-methylpiperidine-4-yl)-1,3-dihydro-2H-benzo[d]imidazole-2-one]	159	> 10000
O=c1sc2cc(-c3cnn(C4CCN(CC5(F)CC5)CC4)c3)ccc2n1Cc1ccc(-c2nnc(C(F)F)o2)cn1 [Compound 357, 3-((5-(5-(difluoromethyl)-1,3,4-oxadiazole-2-yl)pyridine-2-yl)methyl)-6-(1-(1-((1-fluorocyclopropyl)methyl)piperidine-4-yl)-1H-pyrazole-4-yl)benzo[d]thiazole-2(3H)-one]	42	> 10000
O=C(CO)N1CCC(n2c(=O)n(Cc3ccc(-c4nnc(C(F)F)o4)cn3)c3cc(Cl)ccc32)CC1 [Compound 243, 5-chloro-3-((5-(5-(difluoromethyl)-1,3,4-oxadiazole-2-yl)pyridine-2-yl)methyl)-1-(1-(2-hydroxyacetyl)piperidine-4-yl)-1,3-dihydro-2H-benzo[d]imidazole-2-one]	17	> 10000
O=c1n(Cc2ccc(-c3nnc(C(F)F)o3)cn2)c2cc(F)ccc2n1C1CCN(C2CCSCC2)CC1 [Compound 57, 3-((5-(5-(difluoromethyl)-1,3,4-oxadiazole-2-yl)pyridine-2-yl)methyl)-5-fluoro-1-(1-(tetrahydro-2H-thiopyran-4-yl)piperidine-4-yl)-1,3-dihydro-2H-benzo[d]imidazole-2-one]	36	> 10000
CC(=O)N1CCC(n2c(=O)n(Cc3ccc(-c4nnc(C(F)F)o4)cc3)c3ncccc32)CC1 [Compound 186, 1-(1-acetylpiperidine-4-yl)-3-(4-(5-(difluoromethyl)-1,3,4-oxadiazole-2-yl)benzyl)-1,3-dihydro-2H-imidazo[4,5-b]pyridine-2-one]	554	> 10000
CN1CCC(n2c(=O)n(Cc3ccc(-c4nnc(C(F)F)o4)cn3)c3ccccc32)C1 (centres unmarked) [Compound 6, 1-((5-(5-(difluoromethyl)-1,3,4-oxadiazole-2-yl)pyridine-2-yl)methyl)-3-(1-methylpyrrolidine-3-yl)-1,3-dihydro-2H-benzo[d]imidazole-2-one]	203	> 10000
COCCN1Cc2ccccc2N(Cc2ccc(-c3nnc(C(F)F)o3)cc2)C1=O [Compound 30, 1-(4-(5-(difluoromethyl)-1,3,4-oxadiazole-2-yl)benzyl)-3-(2-methoxyethyl)-3,4-dihydro quinazoline-2(1H)-one]	444	> 10000
O=c1n(Cc2ccc(-c3nnc(C(F)F)o3)cn2)c2cc(F)ccc2n1C1CCN(C2CCCCC2)CC1 [Compound 54, 1-(1-cyclohexylpiperidine-4-yl)-3-((5-(5-(difluoromethyl)-1,3,4-oxadiazole-2-yl)pyridine-2-yl)methyl)-5-fluoro-1,3-dihydro-2H-benzo[d]imidazole-2-one]	39	> 10000
CN1CCC(n2c(=O)n(Cc3ccc(-c4nnc(C(F)F)o4)cn3)c3cc(Cl)ccc32)CC1 [Compound 213, 5-chloro-3-((5-(5-(difluoromethyl)-1,3,4-oxadiazole-2-yl)pyridine-2-yl)methyl)-1-(1-methylpiperidine-4-yl)-1,3-dihydro-2H-benzo[d]imidazole-2-one]	14	> 10000
CN1CCC(n2c(=O)n(Cc3ccc(-c4nnc(C(F)F)o4)cn3)c3ccc(-c4cccc(F)c4)cc32)CC1 [Compound 133, 1-((5-(5-(difluoromethyl)-1,3,4-oxadiazole-2-yl)pyridine-2-yl)methyl)-5-(3-fluorophenyl)-3-(1-methylpiperidine-4-yl)-1,3-dihydro-2H-benzo[d]imidazole-2-one]	20	> 10000
CC(C)N1CCN(c2cc3c(cc2F)n(Cc2ccc(-c4nnc(C(F)F)o4)cn2)c(=O)n3C)CC1 [Compound 261, 1-((5-(5-(difluoromethyl)-1,3,4-oxadiazole-2-yl)pyridine-2-yl)methyl)-6-fluoro-5-(4-isopropylpiperazine-1-yl)-3-methyl-1,3-dihydro-2H-benzo[d]imidazole-2-one]	57	> 10000
O=c1oc2cc(Cl)c(Br)cc2n1Cc1ccc(-c2nnc(C(F)F)o2)cn1 [Compound 228, 5-bromo-6-chloro-3-((5-(5-(difluoromethyl)-1,3,4-oxadiazole-2-yl)pyridine-2-yl)methyl)benzo[d]oxazole-2(3H)-one]	47	> 10000
